Laboratory results published in patent US11390580B2, “Anti-fungals targeting the synthesis of fungal shingolipids” (THE RESEARCH FOUNDATION FOR THE STATE UNIVERSITY OF NEW YORK, priority 2014, dated 2022).
Values after ≈ are worked out from the molar mass of the structure shown.

Key:
C. neoformans H99 = experiment: Animal studies for cryptococcosis (intranasal infection); format: in vivo, mice
Candida albicans SC-5314 = experiment: Animal studies for candidiasis (intravenous infection); format: in vivo, mice
Protocol: For survival studies, 8-week old CBA/J female mice (Jackson Laboratory) were used. Eight mice per treatment or control group were used. Mice were infected by intravenous inoculation of 100 μL containing 1×10^5 cells of Candida albicans SC-5314 strain. […] Untreated mice, received 100 μL of PBS/0.4% DMSO. Mice were feed ad-libitum and monitored closely for sign of discomfort. At the end of the survival study, tissue burden culture was performed in mice that survived the infection. Mice were sacrificed and their organs were extracted and homogenized in 10 ml sterile PBS using homogenizer. Organ homogenates were diluted 10 times in PBS, and 100 μL was plated on YPD agar plates and incubated at 30° C. for 72 hours for CFU count.

[1] = In vitro toxicity, MTT assay; conditions: mouse, J774.16 macrophage cells
C. neoformans = experiment: Resistance assay, daily passages in sub-MIC drug; conditions: 15 days of passages below the MIC

## Cc1ccccc1C(=O)NN=Cc1ccc(O)c(Br)c1 [BHBM, N′-(3-bromo-4-hydroxybenzylidene)-2-methylbenzohydrazide]
C. neoformans H99; 1.2 mg/Kg/day intraperitoneally, up to 60 days
  mice surviving infection: 90%
C. neoformans H99; 1.2 mg/Kg/day, day 60
  fungal burden in brain: No C. neoformans cells were found in brains
C. neoformans H99; 1.2 mg/Kg/day, day 60, compared to infected untreated mice
  fungal burden in lung: decrease the fungal burden in the lung
C. neoformans H99; day 60
  brain histology: no fungal cells and normal structure
  lung histology: granulomatous response limited in few areas of the lung
Candida albicans SC-5314; 1.2 mg/kg/day intraperitoneally, after 21 days of infection
  mice alive: 62.5%
Candida albicans SC-5314; day 21, surviving treated mice
  clearance of infection (tissue burden): able to clear C. albicans infection
[1]
  EC50 at 48 h: 50 µg/mL (≈ 150 µM)
C. neoformans
  development of resistance: do not develop resistance
